Data on three compounds can be found in patent US11046716B2, “Beta-lactamase inhibitors” (priority 2015, dated 2021).

One assay deals with OXA-48 (UniProt Q6XEC0). Description: β-lactamase enzyme inhibition assay, Class D oxacillinase. In kind it is biochemical. The following applies: read-out: OXA-48.
A further assay has as its target T1, SHV-5 (Klebsiella pneumoniae, UniProt P0A3M1).
T1 construct: made in house; host or cells: E. coli BL21(DE3)
As to the kind of experiment: β-lactamase enzyme inhibition assay, SHV-5 (cefotaxime substrate). The class given is biochemical. The essentials: (§1)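 Read-out is the rate of β-lactam ring hydrolysis monitored by absorbance: 300 nm for imipenem with KPC-2 and 260 nm for cefotaxime with SHV-5. Recombinant native enzymes were first incubated with compound at 37 °C for 15 min. The IC50 is the inhibitor concentration that halves the initial hydrolysis rate.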

The test system of assay [1] is K. pneumoniae producing the Class D carbapenemase OXA-48. Description: Broth microdilution MIC assay with meropenem, K. pneumoniae OXA-48. The class given is cell-based. To be noted: Fixed Mero (meropenem) 4 μg/mL; K. p. 11978 OXA-48. The method, boiled down: (§2)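 Test compounds in 2-fold dilutions (16 to 0.125 μg/mL final) in CAMHB were combined with a β-lactam at a static 4 μg/ml final. Plates were inoculated per CLSI broth microdilution with the β-lactamase-producing strain (pre-grown 3-5 h) and incubated 16-20 h at 37° C. MIC of test compound was read visually.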
On the technique in general: Dilution methods test growth across graded concentrations, often in twofold steps.

The test system of assay [2] is E. cloacae expressing the Class C P99. As to the kind of experiment: Broth microdilution MIC assay with ceftazidime, E. cloacae P99. The class given is cell-based. The following applies: Fixed CAZ (ceftazidime) 4 μg/mL; E. cl. 144200 p99 AmpC. An excerpt:
To determine the ability of test compounds to potentiate the inhibition of the growth of bacterial strains that produce beta-lactamase enzymes in the presence of a β-lactam antibiotic, classic cell based broth microdilution MIC assays were employed. Six bacteria strains producing beta-lactamase enzymes were used: E. coli expressing the Class A Extended Spectrum Beta-Lactamase (ESBL) CTX-M-15, E. cloacae expressing the Class C P99, K. pneumoniae expressing the Class A carbapenemase KPC-2, P. aeruginosa expressing the Class B carbapenemase VIM-2, K. pneumoniae expressing the class A carbapenemase KPC-2 and the class B carbapenemase VIM-4, and K. pneumoniae producing the Class D carbapenemase OXA-48. The assay was conducted in Cation Adjusted Mueller Hinton Broth (CAMHB, BD #212322, BD Diagnostic Systems, Sparks, Md.). Bacteria strains were grown for 3-5 hours in CAMBH broth. Test compounds (Examples 1-94) were added to a microtiter plate in 2-fold serial dilutions in CAMHB in a final concentration range of 16 μg/mL to 0.125 μg/ml. An overlay of CAMHB containing a Beta-lactam was added to the compounds at a final static concentration of 4 μg/ml. […] In addition to the titration of test compounds the MICs of a panel of control beta-lactams is also tested to ensure the strains are behaving consistently from test to test. Once the test compound and antibiotics are added the plates can be inoculated according to CLSI broth microdilution method. After inoculation the plates are incubated for 16-20 hours at 37° C. then the Minimal Inhibitory Concentration (MIC) of the test compound is determined visually.
Using the methodology described above, examples of the current invention were evaluated for their ability to inhibit the growth of β-lactamase-producing bacteria in the presence of a β-lactam antibiotic.

The subject of assay [3] is E. coli expressing the Class A Extended Spectrum Beta-Lactamase (ESBL) CTX-M-15. Description: Broth microdilution MIC assay with ceftazidime, E. coli CTX-M-15. In kind it is cell-based. The following applies: Fixed CAZ (ceftazidime) 4 μg/mL; E. coli ESBL4 CTX-M-15. The essentials:
as §2

The test system of assay [4] is K. pneumoniae expressing the class A carbapenemase KPC-2 and the class B carbapenemase VIM-4. As to the kind of experiment: Broth microdilution MIC assay with meropenem, K. pneumoniae KPC-2 and VIM-4. In kind it is cell-based. To be noted: Fixed Mero (meropenem) 4 μg/mL; K. p. A-1797 KPC-2 VIM-4. The essentials: as §2
The next assay has as its target T2, VIM-2 (Escherichia coli, UniProt Q5U7L7).
T2 construct: made in house; host or cells: E. coli BL21(DE3)
Description: β-lactamase enzyme inhibition assay, VIM-2 (nitrocefin substrate). In kind it is biochemical. To be noted: Class B; nitrocefin substrate, 486 nm; read-out: VIM-2. The essentials:
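Purified VIM-2 preincubated with inhibitor for 15 min at 37° C, then nitrocefin (100 μM final) added and absorbance at 486 nm followed for 10 min. Maximum hydrolysis rates compared with inhibitor-free controls; IC50 fitted from percent inhibition across inhibitor concentrations.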

For assay [5], the system named is K. pneumoniae expressing the Class A carbapenemase KPC-2. Description: Broth microdilution MIC assay with meropenem, K. pneumoniae KPC-2. In kind it is cell-based. The following applies: Fixed Mero (meropenem) 4 μg/mL; K. p. 156319 KPC-3. The method, boiled down:
as §2

Assay [6] relates to P. aeruginosa expressing the Class B carbapenemase VIM-2. Description: Broth microdilution MIC assay with meropenem, P. aeruginosa VIM-2. The class given is cell-based. To be noted: Fixed Mero (meropenem) 4 μg/mL; P. aerug. 2775 VIM-2. The essentials:
as §2

The target in a further assay is T3, AmpC (Enterobacter cloacae, UniProt P05364).
T3 construct: made in house; host or cells: E. coli BL21(DE3)
As to the kind of experiment: β-lactamase enzyme inhibition assay, p99 AmpC (nitrocefin substrate). The class given is biochemical. The essentials:
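Read-out is the rate of β-lactam ring hydrolysis monitored by absorbance. Recombinant native enzymes were first incubated with compound at 37 °C for 15 min. The IC50 is the inhibitor concentration that halves the initial hydrolysis rate.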

The target of the next assay is T4, KPC-2 (Klebsiella pneumoniae, UniProt Q9F663).
T4 construct: made in house; host or cells: E. coli BL21(DE3)
Description: β-lactamase enzyme inhibition assay, KPC-2 (imipenem substrate). The class given is biochemical. To be noted: Class A; imipenem substrate, 300 nm; read-out: KPC-2. The essentials:
as §1

T1 sequence (P0A3M1 22-286): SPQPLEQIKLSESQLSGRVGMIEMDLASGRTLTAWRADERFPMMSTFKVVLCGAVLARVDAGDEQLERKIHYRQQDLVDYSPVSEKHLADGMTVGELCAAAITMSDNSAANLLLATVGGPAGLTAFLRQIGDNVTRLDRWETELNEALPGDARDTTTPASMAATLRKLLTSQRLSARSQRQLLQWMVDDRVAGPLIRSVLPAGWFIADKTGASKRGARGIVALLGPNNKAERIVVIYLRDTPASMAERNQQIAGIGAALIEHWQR
T4 sequence (Q9F663 25-293, looked up): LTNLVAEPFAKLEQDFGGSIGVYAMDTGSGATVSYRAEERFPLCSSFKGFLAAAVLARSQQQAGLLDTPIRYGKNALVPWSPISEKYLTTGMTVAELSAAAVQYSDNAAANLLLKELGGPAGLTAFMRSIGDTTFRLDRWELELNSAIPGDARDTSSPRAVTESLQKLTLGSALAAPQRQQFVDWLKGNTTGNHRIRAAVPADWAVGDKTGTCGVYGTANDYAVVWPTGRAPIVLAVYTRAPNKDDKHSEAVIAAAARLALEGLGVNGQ
T3 sequence (P05364 21-381): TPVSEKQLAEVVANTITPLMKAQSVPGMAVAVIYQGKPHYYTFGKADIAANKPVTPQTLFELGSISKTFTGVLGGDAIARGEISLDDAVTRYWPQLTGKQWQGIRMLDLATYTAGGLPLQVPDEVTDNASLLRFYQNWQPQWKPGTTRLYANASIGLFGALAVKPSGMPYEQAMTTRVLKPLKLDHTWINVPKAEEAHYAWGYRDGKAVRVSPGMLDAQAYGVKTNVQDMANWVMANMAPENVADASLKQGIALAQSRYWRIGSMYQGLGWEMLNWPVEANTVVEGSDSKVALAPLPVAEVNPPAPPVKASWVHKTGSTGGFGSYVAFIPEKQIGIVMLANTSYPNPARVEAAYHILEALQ

Consider `NCCn1nnc(CC(=O)N[C@H]2Cc3cccc(C(=O)O)c3OB2O)n1` [Example 42, (R)-3-(2-(2-(2-aminoethyl)-2H-tetrazol-5-yl)acetamido)-2-hydroxy-3,4-dihydro-2H-benzo[e][1,2]oxaborinine-8-carboxylic acid], for which the IC50 on OXA-48 is 100 to 1000 nM; at SHV-5, under 100 nM; at VIM-2, under 100 nM; against AmpC it was under 100 nM; at KPC-2, under 100 nM. Besides, the “MIC (μg/mL) of Exemplary Compounds in presence of fixed β-lactams: K. p. 11978 OXA-48” value (shortened to “MIC (μg/mL) … K. p. 11978 OXA-48”) in assay [1] was “B (B represents an MIC between 1 and 16 μg/mL inclusive)”. In addition, the “MIC (μg/mL) of Exemplary Compounds in presence of fixed β-lactams: E. cl. 144200 p99 AmpC” value (“MIC (μg/mL) … E. cl. 144200 p99 AmpC” below) in [2] is listed as “C (C represents an MIC of <1 μg/mL)”. The “MIC (μg/mL) of Exemplary Compounds in presence of fixed β-lactams: E. coli ESBL4 CTX-M-15” value (from here on “MIC (μg/mL) … E. coli ESBL4 CTX-M-15”) in assay [3] is reported as “C (C represents an MIC of <1 μg/mL)”. In addition, the “MIC (μg/mL) of Exemplary Compounds in presence of fixed β-lactams: K. p. A-1797 KPC-2 VIM-4” value (shortened to “MIC (μg/mL) … K. p. A-1797 KPC-2 VIM-4”) in assay [4] is given as “C (C represents an MIC of <1 μg/mL)”. The “MIC (μg/mL) of Exemplary Compounds in presence of fixed β-lactams: K. p. 156319 KPC-3” value (from here on “MIC (μg/mL) … K. p. 156319 KPC-3”) in assay [5] was “C (C represents an MIC of <1 μg/mL)”. For the same compound, the “MIC (μg/mL) of Exemplary Compounds in presence of fixed β-lactams: P. aerug. 2775 VIM-2” value (shortened to “MIC (μg/mL) … P. aerug. 2775 VIM-2”) in assay [6] is “C (C represents an MIC of <1 μg/mL)”.
In the case of `O=C(Cn1cc(C2CNC2)nn1)N[C@H]1Cc2cccc(C(=O)O)c2OB1O` [Example 90, (R)-3-(2-(4-(azetidin-3-yl)-1H-1,2,3-triazol-1-yl)acetamido)-2-hydroxy-3,4-dihydro-2H-benzo[e][1,2]oxaborinine-8-carboxylic acid], the IC50 at OXA-48 is 1000 to 10000 nM; on SHV-5, 100 to 1000 nM; on VIM-2, 100 to 1000 nM; against AmpC, under 100 nM; at KPC-2 it was under 100 nM. For the same compound, the “MIC (μg/mL) … K. p. 11978 OXA-48” value in assay [1] is “B (B represents an MIC between 1 and 16 μg/mL inclusive)”. In addition, in assay [2], the “MIC (μg/mL) … E. cl. 144200 p99 AmpC” value was “C (C represents an MIC of <1 μg/mL)”. Also, the “MIC (μg/mL) … E. coli ESBL4 CTX-M-15” value in [3] was “C (C represents an MIC of <1 μg/mL)”. In addition, the “MIC (μg/mL) … K. p. A-1797 KPC-2 VIM-4” value in [4] was “B (B represents an MIC between 1 and 16 μg/mL inclusive)”. Moreover, the “MIC (μg/mL) … K. p. 156319 KPC-3” value in assay [5] is “B (B represents an MIC between 1 and 16 μg/mL inclusive)”. For the same compound, in assay [6], the “MIC (μg/mL) … P. aerug. 2775 VIM-2” value is “C (C represents an MIC of <1 μg/mL)”.
`CC(C)NCCn1nnnc1CC(=O)N[C@H]1Cc2cccc(C(=O)O)c2OB1O` [Example 52, (R)-2-hydroxy-3-(2-(1-(2-(isopropylamino)ethyl)-1H-tetrazol-5-yl)acetamido)-3,4-dihydro-2H-benzo[e][1,2]oxaborinine-8-carboxylic acid]: the IC50 on OXA-48 is 1000 to 10000 nM; against SHV-5, under 100 nM; at VIM-2 it was under 100 nM; on AmpC, under 100 nM; on KPC-2 it was under 100 nM. For the same compound, in assay [1], the “MIC (μg/mL) … K. p. 11978 OXA-48” value was “B (B represents an MIC between 1 and 16 μg/mL inclusive)”. The “MIC (μg/mL) … E. cl. 144200 p99 AmpC” value in assay [2] is listed as “C (C represents an MIC of <1 μg/mL)”. Moreover, in assay [3], the “MIC (μg/mL) … E. coli ESBL4 CTX-M-15” value is “C (C represents an MIC of <1 μg/mL)”. Further, the “MIC (μg/mL) … K. p. A-1797 KPC-2 VIM-4” value in assay [4] is “B (B represents an MIC between 1 and 16 μg/mL inclusive)”. Also, in assay [5], the “MIC (μg/mL) … K. p. 156319 KPC-3” value was “C (C represents an MIC of <1 μg/mL)”. The “MIC (μg/mL) … P. aerug. 2775 VIM-2” value in assay [6] is recorded as “C (C represents an MIC of <1 μg/mL)”.
